These results are taken from PubChem BioAssay (NCI).

What all share (experiment): growth of human tumour cells (NCI), 48 h
In test [1] the test system is SK-MEL-2 melanoma.
For test [2], the system named is SW-620 colon.
Test [3] deals with NCI-H460 lung.
For test [4], the system named is OVCAR-4 ovarian.
Test [5] deals with CCRF-CEM leukemia.
Test [6] deals with EKVX NSCLC.
Test [7] has as its system UACC-257 melanoma.
Test [8] relates to A498 renal.
Test [9] concerns MALME-3M melanoma.
Test [10] relates to M14 melanoma.

The structures appear in SMILES notation. Values joined by “and” are separate entries in the source; they are usually repeats but may differ in a detail not shown here. Equal entries are not always repeated.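 Exposure lasted 48 hours, with cells grown in 96-well plates and compounds tested at five concentrations. At the GI50, growth is halved. At the TGI there is no net growth.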

Turning to `NCCCNCc1c2ccccc2c(CNCCCN)c2ccccc12`, the TGI turned out to be 28.2 µM in test [1]; 26 µM in test [2]; 32.6 µM in test [3]; 26.5 µM in test [4]; 46.6 µM in test [5]; 43.5 µM in test [6]. Also, the figures for the TGI in test [7], in test [8] and in test [9] were 45.1 µM, 76.8 µM and 24.2 µM, respectively.
As for `CC1CCCc2c1n[nH]c2CC1CC(=O)NC(=O)C1` (stereo unspecified), the TGI in [2], in [3], in test [4], in test [5], in test [10] and in test [6] was > 100 µM each time. In addition, the TGI in test [7], in [8] and in test [9] was > 100 µM each time.
In the case of `COC(=O)CCCCCOS(=O)(=O)c1ccc(C)cc1`, the TGI in test [1], in [2], in test [3], in test [5], in test [10] and in test [6] was > 100 µM in each case. In addition, the TGI in test [7], in [8] and in [9] was > 100 µM each time.
In the case of `N[C@@H](Cc1c[nH]c2ccccc12)C(=O)NC1CCN(Cc2c[nH]c3ccc(Cl)cc23)CC1`, the GI50 in test [1] is 16.6 µM; in [2], 4.79 µM; in [3] it was 4.71 µM; in test [4] it was 8.14 µM; in [5] it was 2.15 µM; in test [10], 6.4 µM. Also, the GI50 in [6] was 10.9 µM; in test [9] it was 1.86 µM. Moreover, the TGI in test [1] came out at 31.8 µM; in test [2], 16.8 µM; in test [3], 16 µM; in test [4] it was 22 µM; in test [5], 4.95 µM; in test [10], 19.5 µM. Also, the TGI in test [6] was 25.1 µM; in [9], 3.98 µM.
For the compound `Oc1cccc2cccnc12`, the GI50 in test [1] was > 20.7 µM and 8.34 µM; in test [2], 0.904 µM and 3.9 µM and 2.36 µM; in test [3], 1.6 µM and 3.32 µM and 3.85 µM; in test [4], 6.13 µM and 19.9 µM and 3.37 µM; in test [10] it was 3.01 µM and 24.2 µM and 2.99 µM. Moreover, the TGI in test [1] is > 74.5 µM; in test [2], > 100 µM; in test [3], 23.4 µM and > 100 µM and 21.9 µM; in [4] it was > 87.6 µM and 83.3 µM and > 100 µM; in test [10], 35.4 µM and > 100 µM; in [6], > 100 µM. The TGI is 27.3 µM and > 100 µM and > 27.8 µM in test [7]; 27.7 µM and 56.4 µM and > 100 µM in test [8]; > 100 µM in test [9].
Regarding `CC1=NC(C)=C(/C(C)=N/NC(=O)c2ccccc2O)C(C)/C1=C(/C)NNC(=O)c1ccccc1O` (stereo unspecified), the TGI in test [2] was > 100 µM; in test [3] it was 66.6 µM; in test [4] it was 48.4 µM; in test [10], > 100 µM; in [6], 48.4 µM; in test [7] it was 76.6 µM. Besides, the TGI is 99.6 µM in test [8] and 80.8 µM in test [9].
As for `COc1ccc(OC)c(-c2cc(-c3ccc(Cl)cc3)nn2-c2ccccc2)c1`, the GI50 in [1] is > 100 µM; in [2], 17 µM; in test [3], 33.8 µM; in [5] it was 8.57 µM; in test [10], 14.8 µM; in [6] it was 82.8 µM. Also, the GI50 was 6.45 µM in test [7] and 6.57 µM in test [8]. Moreover, the TGI in test [1] is > 100 µM; in test [2] it was 78.4 µM; in test [3] it was > 100 µM; in [5], > 100 µM; in test [10], 45.6 µM; in test [6] it was > 100 µM. Moreover, the TGI was determined as 49.1 µM in test [7] and 59.7 µM in [8].
In the case of `C=C1C2CC(OC(C)=O)C3(C)C(c4ccoc4)OC(=O)[C@@H](O)[C@]13OC1C[C@H](OC(C)=O)C(C)(C)[C@H](C(O)C(=O)OC)[C@]12C` (stereo partly specified), the TGI in test [1], in [2], in test [3], in [4], in [5] and in test [10] was > 100 µM throughout. Also, the TGI in test [6] and in [8] was > 100 µM throughout.
For `OCC#Cc1ccccc1C#Cc1ccc(C#Cc2ccccc2C#CCO)cc1`, the GI50 in test [1] is 36.2 µM; in test [2], 38.1 µM; in [3], 28.3 µM; in test [4], 65.8 µM; in test [5] it was 38.1 µM; in [6], 34.6 µM. The GI50 in test [7] is 89.5 µM; in test [8], 28.9 µM; in [9] it was 98.9 µM. Moreover, the TGI in test [1] was 79.9 µM; in test [2] it was > 100 µM; in [3], > 100 µM; in [4], > 100 µM; in [5], > 100 µM; in test [6] it was 97.1 µM. The TGI is > 100 µM in test [7], 95.7 µM in [8] and > 100 µM in [9].
For `O=C(N/C(=C\c1cccc([N+](=O)[O-])c1)c1nc2c3c(ccc2[nH]1)C(=O)c1ccccc1C3=O)c1ccccc1`, the TGI in test [1], in [2], in test [3], in [10], in test [6] and in test [8] was > 100 µM throughout. The TGI in test [9] is > 100 µM.
As to `C/C(COc1ccc2oc(-c3ccccc3)cc(=O)c2c1)=N\O`, the GI50 in [1] is > 100 µM; in test [2] it was 26.2 µM; in [3], 14.3 µM; in test [4], > 100 µM; in [5], 41.4 µM; in test [10], 15.3 µM. Moreover, the GI50 in test [6] is 2.89 µM; in [7], > 100 µM. Further, the TGI in test [1] was > 100 µM; in [2], > 100 µM; in test [3] it was > 100 µM; in [4], > 100 µM; in test [5] it was > 100 µM; in [10] it was 46.3 µM. Also, the TGI in test [6] was 26.6 µM; in test [7] it was > 100 µM.
For the compound `C/C(=N\NC(=O)c1ccccc1O)c1c(O)cc(C)oc1=O`, the TGI is > 100 µM in test [1]; > 100 µM in test [2]; > 100 µM in test [3]; > 100 µM in test [4]; > 100 µM in [10]; 88.6 µM in [6]. Besides, the TGI in [7], in test [8] and in test [9] was > 100 µM throughout.
As for `Nc1ccc(C(=O)CC2(O)C(=O)Nc3ccccc32)cc1` (stereo unspecified), the TGI in test [1], in test [2], in [3], in test [4], in test [10] and in [6] was > 100 µM each time. Moreover, the TGI in [7], in test [8] and in [9] was > 100 µM each time.
As for `O=C1CC=C2C3CC4N(CCC45c4ccccc4N1C25)C/C3=C\CO` (stereo unspecified), the TGI in [1], in test [2], in test [3], in [4], in test [5] and in test [6] was > 100 µM throughout. Also, the TGI in test [7], in test [8] and in test [9] was > 100 µM each time.
Turning to `COC(=O)[C@@H](C)C[C@H](Cc1ccccc1)NC(=O)c1csc([C@@H](C[C@H](C(C)C)N(C)C(=O)[C@@H](NC(=O)[C@H]2CCCCN2C)c2ccc(F)cc2)OC(C)=O)n1`, the GI50 in test [1] was 0.00682 µM and 0.0293 µM; in test [8], 0.0216 µM and 0.127 µM. The TGI was > 100 µM in test [1]; 25 µM and > 100 µM in [2]; 25 µM and > 100 µM in test [3]; 25 µM and > 100 µM in test [4]; 25 µM and > 100 µM in test [5]; 25 µM and > 100 µM in [6]. The TGI in test [7] and in test [8] was > 100 µM each time.
For the compound `CCOc1ccc(Nc2ccnc3cc(Cl)ccc23)cc1`, the GI50 in test [1] was > 100 µM; in [2], > 100 µM; in test [3] it was 29.1 µM; in [4], 78.3 µM; in test [5], > 100 µM; in test [7], > 100 µM. The figures for the GI50 in [8] and in test [9] were 2.61 µM and > 100 µM, respectively. Besides, the TGI in test [1], in test [2], in test [3], in test [4], in test [5] and in [7] was > 100 µM each time. The TGI in test [8] and in test [9] was > 100 µM each time.
On to `Cn1nc(-c2ccccc2)c2c(/C=C/c3ccc(F)cc3)onc2c1=O`, for which the TGI in test [2], in test [3], in test [5], in test [10] and in [6] was > 100 µM each time.
As to `Cc1cc2[nH]c(=O)c3c4ncccc4cn3c2cc1C`, the GI50 was 5.69 µM in test [1]; 2.89 µM in test [2]; 2.17 µM in [3]; 4.17 µM in test [4]; 2.95 µM in test [5]; > 100 µM in [6]. Further, the GI50 in [8] is 9.38 µM. In addition, the TGI is 40.3 µM in test [1]; > 100 µM in test [2]; 6.2 µM in [3]; > 100 µM in test [4]; > 100 µM in [5]; > 100 µM in test [6]. Also, in test [8], the TGI amounted to 84.5 µM.
`CN1CCN(c2ccncc2S(=O)(=O)N2CCN(C)CC2)CC1`: the TGI in [1], in [2], in [3], in test [4], in test [10] and in test [6] was > 100 µM in each case. Moreover, the TGI in [7], in test [8] and in test [9] was > 100 µM each time.
`[Mn+3].[O-][Cl+3]([O-])([O-])O.[O-]c1ccccc1C=NCCN1CC1.[O-]c1ccccc1C=NCCN1CC1`: the GI50 in test [1] was 48.5 µM; in [2], 17.1 µM; in test [3] it was 27 µM; in [4], 15.4 µM; in test [10], 26.9 µM; in test [6], 41.3 µM. In addition, the values for the GI50 in [7], in test [8] and in test [9] were 18.1 µM, > 100 µM and 19.7 µM, respectively. Also, the TGI in test [1], in test [2], in [3], in test [4], in test [10] and in test [6] was > 100 µM in each case. Also, the figures for the TGI in [7], in [8] and in test [9] were 46.2 µM, > 100 µM and 39.9 µM, respectively.
As for `COc1cc(/C=C2\C[C@H]3[C@@H]4CC=C5C[C@@H](O)CC[C@]5(C)[C@H]4CC[C@]3(C)[C@H]2O)ccc1OCCN1CCCCC1`, the GI50 in test [1] is 5 µM; in test [2], 0.76 µM; in test [3] it was 1.21 µM; in test [5] it was 0.37 µM; in test [10], 0.424 µM; in [6] it was 1.67 µM. Besides, the GI50 in [7] is 1.61 µM; in [8], 14.3 µM. The TGI in test [1] is > 50 µM; in [3] it was 3.62 µM; in [5] it was 1.88 µM; in [10], 0.954 µM; in [6], 9.62 µM; in test [7], 5.02 µM. Moreover, the TGI in test [8] amounted to 31.3 µM.
As for `CCCCNC(=O)Oc1ccc(/C(=C(\C)c2ccc(OC)cc2)c2ccc(OCCN3CCCCC3)cc2)cc1`, the GI50 in [1] is 4.65 µM; in test [2] it was 2.45 µM; in test [3] it was 1.94 µM; in test [4], 2.29 µM; in test [5], 2.81 µM; in [10], 1.7 µM. For the same compound, the values for the GI50 in [6], in test [7] and in test [9] were 5.18 µM, 2.72 µM and 1.74 µM, respectively. The TGI was found to be 17.4 µM in test [1]; 6.15 µM in test [2]; 3.86 µM in test [3]; 8.2 µM in [4]; 9.78 µM in [5]; 3.23 µM in test [10]. The values for the TGI in test [6], in [7] and in test [9] were 22.9 µM, 6.71 µM and 3.31 µM, respectively.
`Clc1ccc(-c2nnc(-c3nn(-c4ccccc4)c4nc5ccccc5nc34)o2)cc1`: the TGI in test [1] is > 100 µM; in [2], > 100 µM; in test [3] it was > 100 µM; in test [4], > 100 µM; in test [5], 80.8 µM; in [10], > 100 µM. Also, the TGI in [6], in [7] and in test [9] was > 100 µM in each case.
